# Test results as given in US20050163781A1, “Tissue adhesion formation control” (priority 2002, published 2005).
# Columns and labels:
# [1] = tested on: adhesion formation; conditions: oxygen added to CO2 pneumoperitoneum, intubated mice
# Experimental: In adult, female, NMRI (Naval Medical Research Institute) mice adhesions were induced by laparoscopy and evaluated by laparotomy under microscopic view in order to assess similar variables than in the rabbit model. […] The endoscope with an outer sheath for insufflation (total diameter 3.2 mm) was introduced caudal to the xyphoides by open laparoscopy. Survival after different insufflation pressures and duration of pneumoperitoneum was evaluated in non-intubated and intubated mice. […] For the induction of adhesions, after the establishment of the pneumoperitoneum, the 2nd and 3rd ports (14-gauge catheters) were introduced in the left and right flanks under laparoscopic vision. Standardised, opposing, linear lesions in the anti-mesenteric border of uterine horns and in the pelvic sidewalls were performed by monopolar coagulation. After 7 or 28 days adhesions were evaluated by scoring extent, type and tenacity and by a quantitative measurement. In non-intubated mice CO2 pneumoperitoneum at 2.5 cm of water was maintained for 5, 15, 30, 60 and 120 min to evaluate the effect of duration of pneumoperitoneum. […] To confirm this effect and to evaluate the effect of desiccation due to the flow rate though the animal, pneumoperitoneum was maintained for 5 and 60 min without flow and for 60 min with 1 and 10 ml/min of flow rate. […]
# [2] = tested on: adhesion formation; conditions: 0, 1, 2.5, 5, 10 and 20% of oxygen in CO2 pneumoperitoneum for 1 hour, laser lesions, rabbits
structure (smiles),measurement,setting,value
O=O [oxygen],oxygen proportion giving half maximal reduction of adhesions,[1],around 1.5 % of oxygen
same,oxygen proportion required for maximal response (reduction of adhesions),[1],2-3 % of oxygen
same,oxygen proportion at which maximal effect (decrease of adhesion formation) was observed,[2],5 % of oxygen
